Experimental data from patent publication US10201563B2, “Method of treating sinusitis, including chronic sinusitis” (SINOX PHARMA, INC., priority 2010, dated 2019).

Tests used:
[1] = U.S. Pat. No. 5,731,347; Phase 2 clinical study; cited from earlier work
[2] = tested on: flu viruses; conditions: cited from earlier work
[3] = tested on: viruses; conditions: cited from earlier work
[4] = tested on: most microorganisms, including gram negative bacteria, fungal spores, and viruses; assay type: cell-based
[5] = Gargle and nasal spray with ClO2 solution in people with sore throat, cold or sinusitis; conditions: in vivo
[6] = tested on: viruses; assay type: cell-based

Molecule	therapy for canker sores in the mouth [1]	kill of all flu viruses [2]	inactivation of all viruses tested [3]	time to kill most microorganisms [4]	inflammation and discomfort noted by users [5]	toxicity or irritation to the mucus membranes [5]	deactivation of all viruses [6]
CC(O)C(=O)O (stereo not shown) [lactic acid]	excellent therapy						
chlorine dioxide		in a few seconds	inactivated within a minute	about one	near-immediate reductions	non toxic or non-irritating	deactivated in seconds
